≈ marks a conversion by molar mass, not a printed value.
Experiments:
[1] = test system: Streptococcus mutans; experiment: (§1) Antibacterial activity against Streptococcus mutans UA159 assessed as log decrease in bacterial count per biofilm recovered from hydroxyapatite disc using low dose compound containing hydroxyapatite bound tooth-binding micelles formed from biocompatible pluronic copolymers modified with alendronat measured after 48 hrs post dose; assay type: functional
[2] = Drug release from hydroxyapatite bound tooth-binding micelles formed from biocompatible pluronic copolymers modified with alendronat assessed as compound release into medium after 48 hrs; assay type: physicochemical
[3] = test system: Streptococcus mutans; experiment: Antibacterial activity against Streptococcus mutans UA159; assay type: functional
[4] = test system: Streptococcus mutans; experiment: as §1, with “high” for “low”; assay type: functional
[5] = test system: Streptococcus mutans; experiment: as §1, with “medium” for “low”; assay type: functional

Structure (SMILES): CC(C)=CCC/C(C)=C/CC/C(C)=C/CO [FARNESOL]
- FC [1]: 4
- Activity [2]: 10%
- MIC [3]: 125 µM (≈ 27.8 µg/mL)
- FC [4]: 4
- FC [5]: 4
